Source: US20130330754A1, “SOL-GEL DERIVED SENSOR FOR RAPID DETERMINATION OF HEAVY METALS” (priority 2012, published 2013)
pIC50: −log10 of the molar value.

Tests used:
[1] = biological target: T1, β-galactosidase (B-GAL) (Escherichia coli, UniProt P00722); test: B-GAL inhibition by heavy metals on bioactive paper sensor (CPRG colour intensity); assay type: biochemical, E. coli; settings: for IC50 values (concentration to obtain 50% inhibition of B-GAL) / limits of detection (LODs): paper sensor, 10 min incubation with metal; for limits of detection (LODs): B-GAL/CPRG assay; for inhibition of B-GAL: single metal
T1 sequence (P00722 2-1024): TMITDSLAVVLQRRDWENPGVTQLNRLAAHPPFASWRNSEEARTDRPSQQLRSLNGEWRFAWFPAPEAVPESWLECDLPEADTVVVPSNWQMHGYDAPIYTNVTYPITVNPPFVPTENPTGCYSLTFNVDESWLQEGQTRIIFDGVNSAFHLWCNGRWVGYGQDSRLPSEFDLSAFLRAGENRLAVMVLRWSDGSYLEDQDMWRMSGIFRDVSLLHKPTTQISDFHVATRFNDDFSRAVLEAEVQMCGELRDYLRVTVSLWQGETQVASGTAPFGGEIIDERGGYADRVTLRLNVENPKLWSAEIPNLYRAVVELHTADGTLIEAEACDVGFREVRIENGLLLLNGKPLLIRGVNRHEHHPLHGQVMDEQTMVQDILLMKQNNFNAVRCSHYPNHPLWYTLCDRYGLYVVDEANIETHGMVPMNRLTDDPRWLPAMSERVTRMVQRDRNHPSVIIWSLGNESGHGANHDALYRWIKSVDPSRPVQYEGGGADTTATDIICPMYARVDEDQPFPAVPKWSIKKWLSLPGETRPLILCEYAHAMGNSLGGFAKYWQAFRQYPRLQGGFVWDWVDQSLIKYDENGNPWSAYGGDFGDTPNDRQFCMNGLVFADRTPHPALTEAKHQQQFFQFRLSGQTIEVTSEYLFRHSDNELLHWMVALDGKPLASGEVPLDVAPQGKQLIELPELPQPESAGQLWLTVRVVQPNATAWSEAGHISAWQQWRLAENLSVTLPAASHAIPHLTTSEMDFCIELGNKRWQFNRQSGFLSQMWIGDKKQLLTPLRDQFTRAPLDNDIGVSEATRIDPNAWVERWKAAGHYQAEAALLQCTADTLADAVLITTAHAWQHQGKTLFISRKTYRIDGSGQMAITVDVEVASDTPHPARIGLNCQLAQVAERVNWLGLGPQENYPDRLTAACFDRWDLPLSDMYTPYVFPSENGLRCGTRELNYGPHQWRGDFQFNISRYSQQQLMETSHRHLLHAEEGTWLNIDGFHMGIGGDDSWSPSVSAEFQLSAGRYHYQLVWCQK
Excerpt: The sensors were constructed based on an enzyme, B-GAL vs. substrate, CPRG system with three design strategies: a one-dimensional strategy and two flower shape strategies. In the one-dimensional strategy, a section of Whatman #1 paper was cut into small pieces (0.5×8 cm) on which B-GAL and CPRG were entrapped using sol-gel derived sol gel materials into two different zones (e.g., enzyme or sensing and substrate zones). To prevent leaching the color, a hydrophobic barrier was also introduced on the top (FIG. 1b) of the sensing zone(s) using either wax (by wax printer, Xerox Phaser 8560N) or methyltrimethoxysilane (MTMS) (via piezoelectric inkjet printing).
The sensing zones for all cases were incubated with a drop of contaminated sample for 10 min. The bottom of the paper sensor (FIG. 1b, c) was placed into water while a few drops of water were put at the middle of the sensor (FIG. 1d) for lateral flow chromatography. The color intensity was monitored after 5 min air drying at room temperature. The inkjet printing was done as described elsewhere.^31, 32 After printing, the sensor was allowed to dry for at least 1 h in air at room temperature.
The inhibitory effects of these metals on the solid-phase biosensor were evaluated by measuring the decrease in the color intensity produced by the enzyme-substrate reaction. The sensing region of the paper sensor was first incubated with various concentrations of heavy metals (5 μL) for 10 min after which the paper sensor was allowed for lateral flow chronographic system. The images were taken after 5-10 min air drying at room temperature.
The color intensity of the sensing areas was monitored either by the naked eye, by obtaining a digital image (Canon G11 12 MegaPixel camera operated in automatic mode with no flash and with the macroimaging setting on) or by using an office scanner, with ImageJ™ software being used to analyze the Jpeg images in the latter two cases. The numerical single color coordinates values were obtained using the ImageJ™ color split channel system. All data points represent the average of four replicate experiments and the error bars represent the standard deviations (s.d.) of those points.

[2] = biological target: T1, β-galactosidase (B-GAL); settings: EDTA 10 mM; Hg(II), Ag(I) ~2.7 ppm each, other metals ~8 ppm each
[3] = biological target: T1, β-galactosidase (B-GAL)
Experimental: The sensor was incubated with a 5 μL sample for 10 min (a separate paper sensor was made for each concentration) and the B-GAL inhibition tested as outlined above.

| Compound | IC50 values (concentration to obtain 50% inhibition of B-GAL) [1] | limits of detection (LODs) [1] | inhibition of B-GAL ([1]; 3 μM) | inhibition of B-GAL after inclusion of EDTA [2] | inhibition of B-GAL ([1]; 0.1 μM) | limit of detection ([3]; Hg^2+ mixed with NaCl (10 μM)) | pIC50 ([3]; read-out: IC50 value, Hg^2+ mixed with NaCl (10 μM)) | effect of nontoxic metal ion on response vs. concentration of Hg^2+ and limit of detection ([3]; NaCl 10 μM, KCl 100 ppm) |
| --- | --- | --- | --- | --- | --- | --- | --- | --- |
| O=S(=O)([O-])[O-].[Cu+2] [Cu(II), CuSO4] | 0.70 ppm | ~0.020 ppm | 23% | completely removed the inhibition | – | – | – | – |
| [Cl][Hg][Cl] [Hg(II), HgCl2] | 0.03 ppm | – | – | completely removed the inhibition | 42% | ~0.01 µM | 6.92 | – |
| [Cl][Cd][Cl] [Cd(II), CdCl2] | 1.14 ppm | ~0.020 ppm | – | completely removed the inhibition | – | – | – | – |
| [Cl-].[Na+] [NaCl] | – | – | – | – | – | – | – | negligible effect |
| [Pb+2] [Pb(II)] | 1.40 ppm | ~0.140 ppm | – | completely removed the inhibition | – | – | – | – |
| Cr(VI) | 1.49 ppm | ~0.150 ppm | – | retaining the inhibition | – | – | – | – |
| [Ni+2] [Ni(II)] | 1.80 ppm | ~0.230 ppm | – | completely removed the inhibition | – | – | – | – |
| O=[N+]([O-])[O-].[Ag+] [Ag(I), AgNO3] | 0.05 ppm | ~0.002 ppm | – | retaining the inhibition | about 35% | – | – | – |
